Drawing on PubChem BioAssay (NCI), this text covers GI50 and TGI for eight compounds.

“And” between values parts separate entries of the source, which are not always exact repeats. Identical values can stand only once.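 Briefly, cells in 96-well plates were exposed to five compound concentrations for 48 h, and endpoints were estimated by linear interpolation. The concentration for 50% growth inhibition is given as GI50. TGI: total growth inhibition.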 A value given as a limit tells only on which side of the number the result lay.

Test systems include A498 renal; CAKI-1 renal; KM12 colon; NCI/ADR-RES ovarian; OVCAR-5 ovarian; RPMI-8226 leukemia; SK-MEL-2 melanoma; SK-MEL-28 melanoma; SN12C renal; U251 CNS.
Test in all cases: DTP human tumour cell line panel, 48 h

For the compound `Cc1cnc(NC(=O)Nc2cc(Br)c(C)cc2OC[C@@H]2CNCCO2)cn1`, the GI50 (commonly the concentration that inhibits growth by half) in the assay with A498 renal was 0.33 µM and 0.0894 µM; in the assay on CAKI-1 renal, 1.74 µM and 0.852 µM; with KM12 colon, 1.2 µM and 1.19 µM; in the assay on NCI/ADR-RES ovarian, 0.841 µM and 0.679 µM; in the assay on OVCAR-5 ovarian, 2.1 µM and 1.96 µM; with RPMI-8226 leukemia, 3.05 µM and 1.52 µM. In addition, the GI50 was 0.55 µM and 0.653 µM in the assay on SK-MEL-2 melanoma; 2.21 µM and 2.44 µM in the assay on SK-MEL-28 melanoma; 3.8 µM and 2.5 µM with SN12C renal; 2.44 µM and 3.07 µM in the assay on U251 CNS. In addition, the TGI (as a rule, the concentration at which net growth stops) with CAKI-1 renal is > 10 µM and 6.16 µM; in the assay on KM12 colon it was > 10 µM and 11.9 µM; in the assay on NCI/ADR-RES ovarian, > 10 µM and 11.7 µM; with OVCAR-5 ovarian it was > 10 µM and 13.4 µM; in the assay on RPMI-8226 leukemia it was > 10 µM and 8.52 µM; in the assay on SK-MEL-2 melanoma, > 10 µM and 13 µM. The concentration for total growth inhibition (TGI) in the assay with SK-MEL-28 melanoma is 6.65 µM and 6.88 µM; with SN12C renal, > 10 µM and 12.1 µM; in the assay on U251 CNS, > 10 µM and 13.9 µM.
Take `CC(=O)O[C@H]1CC[C@@]2(C)C(=CC[C@H]3[C@@H]4CC[C@H](c5cc(C(F)(F)F)n(C(C)=O)n5)[C@@]4(C)CC[C@@H]32)C1`: the TGI stood at 22.5 µM in the assay with A498 renal; 24.5 µM in the assay on CAKI-1 renal; 20.9 µM in the assay on KM12 colon; 24 µM in the assay with NCI/ADR-RES ovarian; 22.1 µM with OVCAR-5 ovarian; 17.9 µM in the assay on RPMI-8226 leukemia. The TGI in the assay on SK-MEL-2 melanoma is 20.8 µM; in the assay on SK-MEL-28 melanoma, 28.9 µM; in the assay with SN12C renal, 20.8 µM; with U251 CNS, 16.5 µM.
In the case of `[Cl][Hg][Cl]`, the GI50 in the assay on A498 renal was 20.4 µM; in the assay with CAKI-1 renal it was 13.7 µM; in the assay with KM12 colon, 16.8 µM; in the assay on NCI/ADR-RES ovarian, 28.5 µM; with OVCAR-5 ovarian, 19.3 µM; in the assay with RPMI-8226 leukemia it was 20 µM. Also, the GI50 is 16.2 µM with SK-MEL-2 melanoma, 15.3 µM in the assay with SK-MEL-28 melanoma, 16.1 µM in the assay with SN12C renal and 6.25 µM in the assay with U251 CNS. Besides, the concentration for total growth inhibition (TGI) in the assay on A498 renal is 34.7 µM; with CAKI-1 renal it was 18.1 µM; in the assay with KM12 colon it was 31.6 µM; with NCI/ADR-RES ovarian, 79.6 µM; with OVCAR-5 ovarian, 33.6 µM; with RPMI-8226 leukemia, over 60.3 µM. Further, the TGI with SK-MEL-2 melanoma was found to be 34.5 µM; with SK-MEL-28 melanoma, 29.8 µM; in the assay on SN12C renal, 29.6 µM; in the assay with U251 CNS, 19.8 µM.
Regarding `COc1ccc(-c2cc(=O)c3ccc(C)nc3[nH]2)cc1`, the TGI in the assay on A498 renal, with CAKI-1 renal, with KM12 colon, with NCI/ADR-RES ovarian, with OVCAR-5 ovarian and with RPMI-8226 leukemia was over 100 µM in each case. For the same compound, the concentration for total growth inhibition (TGI) in the assay on SK-MEL-2 melanoma, in the assay with SK-MEL-28 melanoma, in the assay on SN12C renal and with U251 CNS was over 100 µM in each case. Moreover, in the assay with U251 CNS, the GI50 is over 100 µM.
In the case of `S=C(Nc1ccc(Br)cc1)Nc1ccc(Br)cc1`, the GI50 with A498 renal is 5.38 µM; in the assay on CAKI-1 renal, 4 µM; in the assay on KM12 colon, 3.63 µM; in the assay with NCI/ADR-RES ovarian it was 4.32 µM; in the assay with OVCAR-5 ovarian, over 100 µM; in the assay on RPMI-8226 leukemia it was 4.05 µM. Moreover, the GI50 in the assay with SK-MEL-2 melanoma was 7.93 µM; with SK-MEL-28 melanoma, 49.8 µM; in the assay with SN12C renal, 9.72 µM; in the assay on U251 CNS it was 8.39 µM. Also, the concentration for total growth inhibition (TGI) in the assay on A498 renal, with CAKI-1 renal, with KM12 colon, in the assay with NCI/ADR-RES ovarian, with OVCAR-5 ovarian and in the assay on RPMI-8226 leukemia was over 100 µM throughout. Also, the total growth inhibition concentration (TGI) in the assay on SK-MEL-2 melanoma, in the assay with SK-MEL-28 melanoma, in the assay on SN12C renal and in the assay with U251 CNS was over 100 µM throughout.
Turning to `COC(=O)CCc1c[nH]c2ccc(N(CCCl)CCCl)cc12`, the GI50 in the assay with A498 renal is 3.4 µM; in the assay with CAKI-1 renal, 0.375 µM; in the assay on KM12 colon, 10.6 µM; in the assay on NCI/ADR-RES ovarian it was 2.3 µM; in the assay on OVCAR-5 ovarian, 5.32 µM; in the assay on RPMI-8226 leukemia, 3.05 µM. For the same compound, the GI50 was 9.71 µM in the assay with SK-MEL-2 melanoma, 10.5 µM in the assay on SK-MEL-28 melanoma, 0.688 µM in the assay with SN12C renal and 1.31 µM in the assay with U251 CNS. Also, the concentration for total growth inhibition (TGI) was 18.2 µM in the assay with A498 renal; over 28.4 µM in the assay with CAKI-1 renal; 36.1 µM in the assay with KM12 colon; over 56.8 µM in the assay with NCI/ADR-RES ovarian; 46.1 µM in the assay with OVCAR-5 ovarian; over 55.9 µM in the assay on RPMI-8226 leukemia. In addition, the TGI in the assay with SK-MEL-2 melanoma was 59 µM; with SK-MEL-28 melanoma, 33.6 µM; in the assay with SN12C renal, 36.4 µM; with U251 CNS, 25.1 µM.
In the case of `CC(C)(C)C(=O)c1c(C(F)(F)F)n([O-])c2ccccc2[n+]1=O`, the GI50 was 0.565 µM in the assay on A498 renal; 0.282 µM with CAKI-1 renal; 0.905 µM with KM12 colon; 0.571 µM with NCI/ADR-RES ovarian; 0.998 µM with OVCAR-5 ovarian; 0.0234 µM with RPMI-8226 leukemia. The GI50 in the assay on SK-MEL-28 melanoma was 1.13 µM; in the assay on SN12C renal it was 0.665 µM; in the assay with U251 CNS, 0.341 µM. Besides, the TGI in the assay on A498 renal is 1.75 µM; with CAKI-1 renal it was 0.811 µM; in the assay on KM12 colon it was 2.4 µM; in the assay on NCI/ADR-RES ovarian, 2.36 µM; in the assay on OVCAR-5 ovarian, 2.15 µM; in the assay with RPMI-8226 leukemia, 0.246 µM. The TGI in the assay on SK-MEL-2 melanoma is 3.23 µM; in the assay on SK-MEL-28 melanoma it was 6.12 µM; in the assay on SN12C renal, 2.32 µM; in the assay on U251 CNS, 1.16 µM.
As for `OCc1ccc(-c2ccc(-c3ccc(CO)o3)[se]2)o1`, the concentration for 50% growth inhibition (GI50) is 0.17 µM in the assay with A498 renal; over 100 µM in the assay on CAKI-1 renal; over 74.3 µM with KM12 colon; over 60.9 µM in the assay with NCI/ADR-RES ovarian; 0.629 µM in the assay with OVCAR-5 ovarian; 33.7 µM with RPMI-8226 leukemia. Moreover, the GI50 in the assay with SK-MEL-2 melanoma was over 84.5 µM; in the assay with SK-MEL-28 melanoma, over 100 µM; in the assay with SN12C renal it was over 100 µM; with U251 CNS it was over 76.4 µM. The TGI in the assay with A498 renal was 0.375 µM; in the assay with CAKI-1 renal, over 100 µM; in the assay on KM12 colon, over 100 µM; with NCI/ADR-RES ovarian it was over 100 µM; in the assay on OVCAR-5 ovarian, over 100 µM; with RPMI-8226 leukemia, over 100 µM. For the same compound, the TGI with SK-MEL-2 melanoma, in the assay on SK-MEL-28 melanoma, in the assay with SN12C renal and in the assay with U251 CNS was over 100 µM in each case.
